Assay results reported in patent US9095579B2 (priority 2012, dated 2015).
“Also recorded” adds a separate entry of the source.

Test system: A/PR/8/34; H1N1 viruses (PR8-WT, PR8-A122V)
Parameters: species or system C57BL/6 mice
Conditions: mouse, in vivo

SMILES | protection from the effects of influenza infection | columnar organization of the airway epithelium (ip) | epithelial damage in lung airways caused by PR8-WT and PR8-A122V (ip)
CC1=C2C[C@H]3[C@@H](CC=C4C[C@@H](O)CC[C@@]43C)[C@@H]2CC[C@]12O[C@@H]1C[C@H](C)CN[C@H]1[C@H]2C [cyclopamine] | partially protected | restored a degree of columnar organization | reduced epithelial damage; also recorded: partially rescued; also recorded: reduces viral damage in the lung
C[C@H]1CC[C@]2(NC1)O[C@H]1C[C@H]3[C@@H]4CC[C@H]5C[C@@H](O)CC[C@]5(C)[C@H]4CC[C@]3(C)[C@H]1[C@@H]2C [tomatidine] | – | – | no rescue of airway damage; also recorded: no obvious effect
